This note sets out measurements from US20110092547A1 (priority 2007, published 2011).

A word on the IC50: it is the concentration that gives 50% inhibition. Higher therefore signals lower potency.

For this experiment, the target named is T1, human DGAT1 (Homo sapiens, UniProt O75907).
T1 construct: made in house; host or cells: Sf9 insect cells (recombinant baculovirus); membrane fraction
T1 sequence (O75907 1-488): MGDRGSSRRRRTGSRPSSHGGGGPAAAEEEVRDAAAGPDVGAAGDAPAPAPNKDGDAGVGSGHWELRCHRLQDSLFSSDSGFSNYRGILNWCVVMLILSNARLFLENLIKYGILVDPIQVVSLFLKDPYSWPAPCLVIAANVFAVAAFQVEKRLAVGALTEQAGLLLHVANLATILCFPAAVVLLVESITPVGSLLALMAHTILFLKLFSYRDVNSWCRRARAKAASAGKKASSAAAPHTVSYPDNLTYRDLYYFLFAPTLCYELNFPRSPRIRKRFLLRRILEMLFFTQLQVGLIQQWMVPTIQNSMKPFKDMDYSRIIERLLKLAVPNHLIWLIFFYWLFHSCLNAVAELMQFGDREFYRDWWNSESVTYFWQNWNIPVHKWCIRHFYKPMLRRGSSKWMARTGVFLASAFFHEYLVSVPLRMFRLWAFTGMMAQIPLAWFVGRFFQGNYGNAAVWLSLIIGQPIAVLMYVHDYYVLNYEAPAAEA
As to the kind of experiment: Human enzyme assay, further developed assay (14C oleoyl CoA, 96 well plate). The class given is biochemical. The following applies: human DGAT1 expressed in insect cell (sf9) membranes. The method, then: The in vitro assay to identify DGAT1 inhibitors uses human DGAT1 expressed in insect cell membranes as the enzyme source (Proc. Natl. Acad. Sci. 1998, 95, 13018-13023). Briefly, sf9 cells were infected with recombinant baculovirus containing human DGAT1 coding sequences and harvested after 48 h. Cells were lysed by sonication and membranes isolated by centrifuging at 28000 rpm for 1 h at 4° C. on a 41% sucrose gradient. The membrane fraction at the interphase was collected, washed, and stored in liquid nitrogen.
In a further developed assay, DGAT1 activity was assayed by a modification of the method described by Coleman (Methods in Enzymology 1992, 209, 98-102). Compound at 0.00003-10 μM (final cone) was incubated with 25 μg/ml (final cone) membrane protein, 5 mM MgCl2, and 100 μM 1,2 dioleoyl-sn-glycerol in a total assay volume of 200 μl in a 96 well plate. The reaction was started by adding ^14C oleoyl coenzyme A (30 μM final concentration) and incubated at room temperature for 30 minutes. The reaction was stopped by adding 300 μl 2-propanol:heptane 7:1. Radioactive triolein product was separated into the organic phase by adding 200 μl heptane and 200 μl 0.1 M carbonate buffer pH 9.5. DGAT1 activity was quantified by counting aliquots of the upper heptane layer by liquid scintillography.
As to `C[C@]1(C(=O)O)CC[C@H](Oc2ccc(NC(=O)c3nnc(Nc4ccc(F)c(F)c4)o3)cn2)CC1` [Example 2, (1r,4r)-4-(5-(5-(3,4-difluorophenylamino)-1,3,4-oxadiazole-2-carboxamido)pyridin-2-yloxy)-1-methylcyclohexanecarboxylic acid], the IC50 came to 494 nM.

As to `O=C(Nc1ccc(O[C@H]2CC[C@@H](C(=O)O)CC2)nc1F)c1nnc(Nc2ccc(F)c(Cl)c2)o1` [Example 55, (1s,4s)-4-(5-(5-(3-Chloro-4-fluorophenylamino)-1,3,4-oxadiazole-2-carboxamido)-6-fluoropyridin-2-yloxy)cyclohexanecarboxylic acid], the IC50 was found to be 2.1 nM. This IC50 is about 240-fold lower than that of the compound before.

In turn, `O=C(Nc1ccc(O[C@H]2CC[C@H](C(=O)O)CC2)nc1)c1nnc(Nc2cccc(Cl)c2Cl)o1` [Example 28, (1r,4r)-4-(5-(5-(2,3-dichloro-phenylamino)-1,3,4-oxadiazole-2-carboxamido)pyridin-2-yloxy)cyclo-hexane-carboxylic acid] showed an IC50 of 16 nM. Then `Cc1ccc(Nc2nnc(C(=O)Nc3ccc(O[C@H]4CC[C@@H](C(=O)O)CC4)nc3)o2)cc1Cl` [Example 15, (1s,4s)-4-(5-(5-(3-chloro-4-methylphenylamino)-1,3,4-oxadiazole-2-carboxamido)pyridin-2-yloxy)cyclohexanecarboxylic acid], with 8 nM; and `O=C(Nc1ccc(O[C@H]2CC[C@H](C(=O)O)CC2)nc1)c1nnc(Nc2ccc(F)c(Cl)c2)o1` [Example 24, (1r,4r)-4-(5-(5-(3-chloro-4-fluoro-phenylamino)-1,3,4-oxadiazole-2-carboxamido)pyridin-2-yloxy)cyclo-hexane-carboxylic acid], with 20 nM; and `O=C(Nc1cnc(O[C@H]2CC[C@@H](C(=O)O)CC2)c(Cl)c1)c1nnc(Nc2ccc(F)c(Cl)c2)o1` [Example 48, (1s,4s)-4-(3-Chloro-5-(5-(3-chloro-4-fluorophenylamino)-1,3,4-oxadiazole-2-carboxamido)pyridin-2-yloxy)cyclohexanecarboxylic acid], with 14 nM. Take `O=C(Nc1ccc(O[C@H]2CC[C@H](C(=O)O)CC2)nc1)c1nnc(Nc2ccc(Cl)cc2Cl)o1` [Example 23, (1r,4r)-4-(5-(5-(2,4-dichloro-phenylamino)-1,3,4-oxadiazole-2-carboxamido)pyridin-2-yloxy)cyclo-hexane-carboxylic acid]: the IC50 was 21 nM. Then `O=C(Nc1ccc(O[C@H]2CC[C@@H](C(=O)O)CC2)nc1)c1nnc(Nc2cc(C(F)(F)F)c(F)cc2F)o1` [Example 5, (1s,4s)-4-(5-(5-(2,4-difluoro-5-(trifluoromethyl)phenylamino)-1,3,4-oxadiazole-2-carboxamido)pyridin-2-yloxy)cyclohexanecarboxylic acid], with 31 nM; and `COC[C@]1(C(=O)O)CC[C@H](Oc2ccc(NC(=O)c3nnc(Nc4cc(F)c(F)cc4F)o3)cn2)CC1` [Example 3, 1-(Methoxymethyl)-4-(5-(5-(2,4,5-trifluorophenylamino)-1,3,4-oxadiazole-2-carboxamido)pyridin-2-yloxy)cyclohexanecarboxylic acid], with 35 nM; and `O=C(Nc1cnc(O[C@H]2CC[C@@H](C(=O)O)CC2)c(Cl)c1)c1nnc(Nc2ccc(Cl)cc2Cl)o1` [Example 46, (1s,4s)-4-(3-Chloro-5-(5-(2,4-dichlorophenylamino)-1,3,4-oxadiazole-2-carboxamido)pyridin-2-yloxy)cyclohexanecarboxylic acid], with 22 nM. `O=C(Nc1ccc(O[C@H]2CC[C@H](C(=O)O)CC2)nc1)c1nnc(Nc2cc(C(F)(F)F)c(F)cc2F)o1` [Example 35] came in with an IC50 of 87 nM. Then `O=C(Nc1ccc(O[C@H]2CC[C@H](C(=O)O)CC2)nc1)c1nnc(Nc2ccc(Br)cc2Cl)o1` [Example 33, (1r,4r)-4-(5-(5-(4-bromo-2-chloro-phenylamino)-1,3,4-oxadiazole-2-carboxamido)pyridin-2-yloxy)cyclo-hexane-carboxylic acid], with 22 nM.

`CC(C)c1ccc(Nc2nnc(C(=O)Nc3ccc(O[C@H]4CC[C@@H](C(=O)O)CC4)nc3)o2)cc1` [Example 10, (1s,4s)-4-(5-(5-(4-isopropylphenylamino)-1,3,4-oxadiazole-2-carboxamido)pyridin-2-yloxy)cyclohexanecarboxylic acid] returned an IC50 of 19 nM. The IC50 values of the last two compounds are within 1.5-fold of each other.

In turn, `COc1cc(O[C@H]2CC[C@@H](C(=O)O)CC2)ncc1NC(=O)c1nnc(Nc2ccc(F)c(F)c2)o1` [Example 43, (1s,4s)-4-(5-(5-(3,4-Difluorophenylamino)-1,3,4-oxadiazole-2-carboxamido)-4-methoxypyridin-2-yloxy)cyclohexanecarboxylic acid] registered an IC50 of 50 nM.

In turn, `O=C(Nc1ccc(O[C@H]2CC[C@H](C(=O)O)CC2)nc1)c1nnc(Nc2cc(F)c(F)cc2F)o1` [Example 22, (1r,4r)-4-(5-(5-(2,4,5-trifluorophenylamino)-1,3,4-oxadiazole-2-carboxamido)pyridin-2-yloxy)cyclohexanecarboxylic acid] returned an IC50 of 36 nM. `O=C(O)C[C@H]1CC[C@@H](Oc2ccc(NC(=O)c3nnc(Nc4ccc(Cl)cc4Cl)o3)cn2)CC1` [Example 54, 2-((1s,4s)-4-(5-(5-(2,4-Dichlorophenylamino)-1,3,4-oxadiazole-2-carboxamido)pyridin-2-yloxy)cyclohexyl)acetic acid] registered an IC50 of 8.3 nM. On to `COc1cc(NC(=O)c2nnc(Nc3ccc(F)c(Cl)c3)o2)cnc1O[C@H]1CC[C@@H](C(=O)O)CC1` [Example 56, (1s,4s)-4-(5-(5-(3-Chloro-4-fluorophenylamino)-1,3,4-oxadiazole-2-carboxamido)-3-methoxypyridin-2-yloxy)cyclohexanecarboxylic acid], for which the 50% inhibitory concentration (IC50) came to 150 nM. Against the preceding compound, the IC50 is about 18-fold higher.

In turn, `O=C(Nc1ccc(O[C@H]2CC[C@@H](C(=O)O)CC2)nc1F)c1nnc(Nc2ccc(F)c(F)c2)o1` [Example 50, (1s,4s)-4-(5-(5-(3,4-Difluorophenylamino)-1,3,4-oxadiazole-2-carboxamido)-6-fluoropyridin-2-yloxy)cyclohexanecarboxylic acid] had an IC50 of 3.4 nM. This IC50 lies about 44-fold lower than the previous one. Then `Cc1cc(O[C@H]2CC[C@@H](C(=O)O)CC2)ncc1NC(=O)c1nnc(Nc2ccc(F)c(F)c2)o1` [Example 40, (1s,4s)-4-(5-(5-(3,4-Difluorophenylamino)-1,3,4-oxadiazole-2-carboxamido)-4-methylpyridin-2-yloxy)cyclohexanecarboxylic acid], with 3.5 nM. Turning to `O=C(Nc1ccc(O[C@H]2CC[C@H](C(=O)O)CC2)nc1)c1nnc(Nc2ccc(F)c(C(F)(F)F)c2)o1` [Example 29, (1r,4r)-4-(5-(5-(4-fluoro-3-(trifluoro-methyl)phenylamino)-1,3,4-oxadiazole-2-carboxamido)pyridin-2-yloxy)cyclo-hexane-carboxylic acid], half-maximal inhibition (IC50) required 25 nM.

`Cc1nc(O[C@H]2CC[C@@H](C(=O)O)CC2)ccc1NC(=O)c1nnc(Nc2ccc(F)c(F)c2)o1` [Example 62, (1s,4s)-4-(5-(5-(3,4-Difluorophenylamino)-1,3,4-oxadiazole-2-carboxamido)-6-methylpyridin-2-yloxy)cyclohexanecarboxylic acid] came in with an IC50 of 58 nM.

Take `O=C(Nc1ccc(O[C@H]2C[C@H](C(=O)O)C2)nc1)c1nnc(Nc2ccc(F)c(F)c2)o1` [Example 66, trans-3-(5-(5-(3,4-difluorophenylamino)-1,3,4-oxadiazole-2-carboxamido)pyridin-2-yloxy)cyclobutanecarboxylic acid]: the IC50 is 2.1 nM. For the compound `CC(C)c1ccc(Nc2nnc(C(=O)Nc3ccc(O[C@H]4CC[C@H](C(=O)O)CC4)nc3)o2)cc1` [Example 30, (1r,4r)-4-(5-(5-(4-isopropyl-phenylamino)-1,3,4-oxadiazole-2-carboxamido)pyridin-2-yloxy)cyclo-hexane-carboxylic acid], 17 nM corresponded to half-maximal inhibition (IC50). The compound `O=C(Nc1ccc(O[C@H]2CC[C@@H](C(=O)O)CC2)nc1)c1nnc(Nc2ccc(F)c(F)c2)o1` [Example 1, cis-4-[5-[[5-[(3,4-Difluorophenyl)amino]-1,3,4-oxadiazole-2-carbonyl]amino]pyridin-2-yl]oxycyclohexane-1-carboxylic acid] displayed a 50% inhibitory concentration (IC50) of 11 nM.

`O=C(Nc1cnc(O[C@H]2CC[C@@H](C(=O)O)CC2)c(Cl)c1)c1nnc(Nc2ccc(F)c(F)c2)o1` [Example 47, (1s,4s)-4-(3-Chloro-5-(5-(3,4-difluorophenylamino)-1,3,4-oxadiazole-2-carboxamido)pyridin-2-yloxy)cyclohexanecarboxylic acid] registered an IC50 of 22 nM.
